What was measured:
[1] = test system: PC3 cell line or DU145 cell line; assay: SRB cell proliferation assay, prostate cancer cell lines; type: cell-based; conditions: gossypol 5 μM, phenformin 100 μM, doxorubicin 1 nM, single, double or triple (Table 19, FIG. 7A)
[2] = test system: PC3 cells xenograft tumor; assay: Prostate cancer mouse model, tumor growth; type: in vivo, Balb/c-nu mice; conditions: gossypol 80 mg/kg, phenformin 100 mg/kg, doxorubicin 5 mg/kg, single, double or triple (Table 28, FIGS. 13A, 13B)
[3] = test system: BT549 cell line or MB231 cell line; assay: SRB cell proliferation assay, breast cancer cell lines; type: cell-based
[4] = test system: A549 cell line xenograft tumor; assay: Lung cancer mouse model, tumor growth; type: in vivo, Balb/c-nu mice
Protocol: First, in order to make a lung cancer mouse model, 6 to 8 week old Balb/c-nu mice (Central Lab. Animal, Highland Heights, KY, USA) were prepared. In addition, 7.5×10^6 A549 cell line was cultured, and was injected subcutaneously to the prepared mice with a 1 ml syringe. Mice were reared for 1 week and divided into 4 groups of 8 mice each, and these were used as a control group or an experimental group as defined in [Table 24] and [Table 25]. […] While breeding, the average was obtained by checking the weight and size of the tumor of the mouse group every 7 days. After injection of lung cancer cells, the initial tumor size was specified using a calliper. The tumor volume was calculated according to the following [Equation 1].

Row | SMILES | degree of cell proliferation with respect to the untreated control [1] | tumor growth level [2] | synergistic effect of anticancer action when mixed with gossypol and phenformin ([3]; breast cancer, named agent + gossypol 5 μM + phenformin 100 μM (Tables 13-15)) | effect of inhibiting cell proliferation in the triple drug treatment group ([3]; cisplatin 1 μM or doxorubicin 1 μM mixed with gossypol 5 μM and phenformin 100 μM (Tables 14-15, FIGS. 5B, 5C)) | anticancer synergistic effect of the triple drug administration ([4]; gemcitabine 40 mg/kg with gossypol 80 mg/kg and phenformin 100 mg/kg (FIG. 10)) | tumor growth (change in tumor size) ([4]; gemcitabine experiment: gossypol 80 mg/kg, phenformin 100 mg/kg, gemcitabine 40 mg/kg, single or double (Table 25, FIG. 10))
1 | COc1cccc2c1C(=O)c1c(O)c3c(c(O)c1C2=O)C[C@@](O)(C(=O)CO)C[C@@H]3O[C@H]1C[C@H](N)[C@H](O)[C@H](C)O1 [doxorubicin] | proliferation of cancer cells could be inhibited at a significant level | significantly inhibited tumor growth compared to the solvent control group | not exhibited | level similar to that of the double drug treatment group |  | 
2 | Nc1ccn([C@@H]2O[C@H](CO)[C@@H](O)C2(F)F)c(=O)n1 [gemcitabine] |  |  |  |  | not observed | tumor growth at a level similar to that of the solvent administration group
